Laboratory results from publication PMC12057336 (Antimicrobial Agents and Chemotherapy, 2025).

Tests used:
[1] = test system: OCT2; conditions: cited from earlier work
[2] = test system: OATP2B1; conditions: cited from earlier work
[3] = Pharmacokinetics (plasma, urine) of linezolid and metabolites after i.g. or i.v. linezolid in control, CCl4-induced and 5/6 Nx rats; conditions: for AUC(0-inf): AUC0-∞
Source text: The control group rats were intraperitoneally injected with equal volumes of soybean oil. […] The upper and lower poles of the left kidney were removed under urethane anesthesia (1 g/kg; administered by i.p. injection). One week later, the right kidney was completely excised. Rats in the control group underwent a sham operation ([35]). Serum creatinine (CREA), blood urea nitrogen (BUN), aspartate aminotransferase (AST), alanine aminotransferase (ALT), alkaline phosphatase (ALP), lactate dehydrogenase (LDH), and total bilirubin (TBIL) levels were measured using commercial kits (Shanghai Enzyme-linked Biotechnology Co., Ltd., Shanghai, China) according to the protocols described by the manufacturer before pharmacokinetic experiments.
The rats were first divided into two groups: i.v. or i.g. administration groups. These two groups were further divided into the following four subgroups (n = 5): soybean oil-treated control rats, CCl4-induced rats, sham-operated control rats, and 5/6 Nx rats. […] Blood samples (200 µL) were collected from the retro-orbital venous plexus into heparinized tubes at 0 (pre-dose), 0.25, 0.5, 0.75, 1, 2, 3, 4, 6, 8, 12, and 24 h after i.g. administration, and at 0 (pre-dose), 0.083, 0.25, 0.5, 0.75, 1, 2, 3, 4, 6, 8, 12, and 24 h after i.v. administration. Plasma samples were separated by centrifugation at 6,000 × g for 5 min at 4°C and stored at −80°C until further analysis using HPLC.
Chromatographic separation was performed using the SinoPak BEH T-C18 column (4.6 mm × 150 mm, 5 µm, Hi-tech Zone, China) at 35°C. A photodiode array detector was set at a wavelength of 254 nm. The mobile phase consisted of 0.1% (vol/vol) formic acid in water (A) and acetonitrile (B). The gradient conditions were as follows: 0–4.0 min, 14%–86% B; 4.0–5.0 min, […]; 5.0–5.7 min, return to 14% B; 5.7–8.0 min, equilibrium. The flow rate was 1.0 mL/min.
Plasma and tissue homogenate samples (100 µL) were mixed with 10 µL of IS (50.0 mg/L) and 200 µL of acetonitrile, followed by vortex-mixing for 3 min. The mixture was centrifuged at 15,000 × g for 15 min at 4°C. Then, 5 µL of the supernatant was analyzed. The urine samples were diluted and directly injected for measurement.
The area under the plasma concentration-time curve from 0 to infinity (AUC0-∞), time to maximum concentration (tmax), Cmax, t1/2, CL, and Vd were calculated by non-compartmental model analysis using the Phoenix 8.1.0 WinNonlin software (Pharsight Corp, Princeton, NJ, USA). The renal clearance (CLr), in vitro hepatic clearance (CLint, in vitro), and bioavailability (F) were calculated using the following equations:
F (%) = Div×AUC0−∞, ig/Dig×AUC0−∞, iv
Atotal is the total cumulative amount excreted in urine over 24 h. D is the administered dose. The scale factor is 4,680 (10^6 cells/kg). All data are expressed as mean ± standard deviation (SD). Statistical analysis was performed using Student’s two-tailed unpaired t-test or nonparametric Mann-Whitney U test with SPSS Statistics 19.0 (SPSS Inc., Chicago, IL, USA). Statistical significance was set at P < 0.05.

[4] = rats; cited from earlier work
[5] = test system: OCT3; conditions: cited from earlier work
[6] = test system: MATE2-K; conditions: cited from earlier work
[7] = Sprague-Dawley, rat, in vivo, iv
[8] = Sprague-Dawley, rat, in vivo, po, 63 mg/kg

SMILES: CC(=O)NC[C@H]1CN(c2ccc(N3CCOCC3)c(F)c2)C(=O)O1 [Linezolid]
- substrate for OCT2 [1]: not a substrate
- inhibitor of OATP2B1 [2]: inhibitor
- change of cumulative urinary excretion rate ([3]; 5/6 Nx rats vs control, P < 0.05): significantly decreased
- change of cumulative urinary excretion rate ([3]; CCl4-induced rats): no significant changes
- decrease of CLr in comparison to sham-operated control rats ([3]; Sprague-Dawley, rat, in vivo): 50.0%
- decrease of CL in comparison to soybean oil-treated control rats [3, 7]: 27.0%
- decrease of CLr in comparison to sham-operated control rats [3, 7]: 66.7%
- AUC(0-inf) ([3]; Sprague-Dawley, rat, in vivo, iv, 25 mg/kg): 69.3 ± 8.67 µg·h/mL
- clearance ([3]; Sprague-Dawley, rat, in vivo, iv, 25 mg/kg, CL): 0.37 L/h/kg
- Vd ([3]; Sprague-Dawley, rat, in vivo, iv, 25 mg/kg, Vd): 0.63 ± 0.05 L/kg
- decrease of CL in comparison to soybean oil-treated control rats ([3]; Sprague-Dawley, rat, in vivo, po): 13.8%
- Tmax [3, 8]: 0.9 ± 0.14 h
- tmax [3, 8]: 1.0 h
- AUC(0-inf) [3, 8]: 220 ± 27.6 µg·h/mL
- CL renal ([3]; Sprague-Dawley, rat, in vivo, po, 63 mg/kg, CLr): 0.02 L/h/kg
- Cmax ([3]; Sprague-Dawley, rat, in vivo, po, 63 mg/kg, Cmax): 35.3 ± 1.1 µg/mL
- half-life ([3]; Sprague-Dawley, rat, in vivo, po, 63 mg/kg, t1/2): 1.84 ± 0.27 h
- mean recovery of linezolid radioactivity in excreta [4]: over 95%
- substrate for OCT3 [5]: not a substrate
- inhibitor of MATE2-K [6]: not an inhibitor
